Measured values taken from patent publication US11976051B1, “N′-(2-(5-(4-chlorophenyl)-1,3,4-oxadiazol-2-ylthio)acetoxy)-2-naphthimidamide as an antimicrobial compound” (KING FAISAL UNIVERSITY, priority 2023, dated 2024).

How the values were obtained:
[1] = test system: Bacillus cereus; experiment: Agar plate disc-diffusion, antibacterial activity; type: cell-based; conditions: nutrient agar, 37° C., 48 h
Description: (§1) The agar plate disc-diffusion method was applied. […] The discs were then placed onto the surface of agar plates (nutrient agar for bacteria and Sabouraud's dextrose agar for fungi) seeded with the test organism. Each plate contained 15 mL of the agar medium, previously seeded with 0.2 mL of the broth culture of each organism pregrown for 18 h. The plates were incubated at 37° C. for 48 h, and 72 h for fungi. The inhibition zones was measured in mm. Discs impregnated with DMSO were used as a control, and its inhibition zone was subtracted from the tested compound actual inhibition zone.
(§2) The antibacterial activity was screened against gram positive bacteria namely Bacillus cereus and Staphylococcus aureus and gram-negative bacterial strains namely Pseudomonas aeruginosa and Escherichia coli, while the antifungal activity was screened against Aspergillus flavus and Chrysosporium keratinophilum as shown in Table 1 and 2.

[2] = test system: Pseudomonas aeruginosa; experiment: Agar plate disc-diffusion, antibacterial activity; type: cell-based; conditions: nutrient agar, 37° C., 48 h
Description: as §1, §2

[3] = test system: Staphylococcus aureus; experiment: Agar plate disc-diffusion, antibacterial activity; type: cell-based; conditions: nutrient agar, 37° C., 48 h
Description: as §1, §2

[4] = test system: Escherichia coli; experiment: Agar plate disc-diffusion, antibacterial activity; type: cell-based; conditions: nutrient agar, 37° C., 48 h
Description: (§3) The agar plate disc-diffusion method was applied. Sterilized filter papers (6 mm in diameter) were wetted with […] of a solution of N′-(2-(5-(4-chlorophenyl)-1,3,4-oxadiazol-2-ylthio)acetoxy)-2-naphthimidamide (3) to be tested, containing 10 mg/mL in DMSO, and the discs were allowed to air dry. The discs were then placed onto the surface of agar plates (nutrient agar for bacteria and Sabouraud's dextrose agar for fungi) seeded with the test organism. Each plate contained 15 mL of the agar medium, previously seeded with 0.2 mL of the broth culture of each organism pregrown for 18 h. The plates were incubated at 37° C. for 48 h, and 72 h for fungi. The inhibition zones was measured in mm. Discs impregnated with DMSO were used as a control, and its inhibition zone was subtracted from the tested compound actual inhibition zone.
as §2

[5] = test system: Aspergillus flavus; experiment: Agar plate disc-diffusion, antifungal activity; type: cell-based; conditions: Sabouraud's dextrose agar, 72 h
Description: as §3, §2

[6] = test system: Chrysosporium keratinophilum; experiment: Agar plate disc-diffusion, antifungal activity; type: cell-based; conditions: Sabouraud's dextrose agar, 72 h
Description: as §1, §2

[7] = A = concentration of comp. = 10 mg/mL
[8] = B = concentration of comp. = 30,000 μL
[9] = C = concentration of comp. = 50,000 μL
[10] = A = concentration of comp. = 10,000 μg/mL

Compound: N/C(=N\OC(=O)CSc1nnc(-c2ccc(Cl)cc2)o1)c1ccc2ccccc2c1 [Compound 3, N′-(2-(5-(4-chlorophenyl)-1,3,4-oxadiazol-2-ylthio)acetoxy)-2-naphthimidamide]
- inhibition zone, Bacillus Cereus [1, 7]: 31 mm
- inhibition zone, Bacillus Cereus [1, 8]: 36 mm
- inhibition zone, Bacillus Cereus [1, 9]: 43 mm
- inhibition zone, Pseudomonas aeruginosa [2, 7]: 26 mm
- inhibition zone, Pseudomonas aeruginosa [2, 8]: 33 mm
- inhibition zone, Pseudomonas aeruginosa [2, 9]: 39 mm
- inhibition zone, Staphylococcus aureus [3, 7]: 17 mm
- inhibition zone, Staphylococcus aureus [3, 8]: 24 mm
- inhibition zone, Staphylococcus aureus [3, 9]: 29 mm
- inhibition zone, Escherichia coli [4, 10]: 35 mm
- inhibition zone, Escherichia coli [4, 8]: 41 mm
- inhibition zone, Escherichia coli [4, 9]: 47 mm
- inhibition zone, Aspergillus flavus ([5]; A = concentration of comp. = 10,000 μL): 25 mm
- inhibition zone, Aspergillus flavus [5, 8]: 28 mm
- inhibition zone, Aspergillus flavus [5, 9]: 37 mm
- inhibition zone, Chrysosporium keratinophilum [6, 10]: 23 mm
- inhibition zone, Chrysosporium keratinophilum [6, 8]: 29 mm
- inhibition zone, Chrysosporium keratinophilum [6, 9]: 38 mm
- melting point: 181 to 182 °C
